We go through seven compounds from ChEMBL document CHEMBL1135281, “Solid-phase synthesis and pharmacological evaluation of analogues of PhTX-12-A potent and selective nicotinic acetylcholine receptor antagonist” (Bioorg Med Chem Lett, 2002).

pIC50: −log10 of the molar value.

For assay [1], the target named is T1, Acetylcholine receptor subunit delta (Homo sapiens, UniProt Q07001). Description: Compound was evaluated for inhibitory activity against human embryonic muscle type Nicotinic acetylcholine receptor specifically delta-subunit expressed in TE-671 cell (at holding potential -50 mV). It is filed as cell-based.
T1 sequence (Q07001 whole entry): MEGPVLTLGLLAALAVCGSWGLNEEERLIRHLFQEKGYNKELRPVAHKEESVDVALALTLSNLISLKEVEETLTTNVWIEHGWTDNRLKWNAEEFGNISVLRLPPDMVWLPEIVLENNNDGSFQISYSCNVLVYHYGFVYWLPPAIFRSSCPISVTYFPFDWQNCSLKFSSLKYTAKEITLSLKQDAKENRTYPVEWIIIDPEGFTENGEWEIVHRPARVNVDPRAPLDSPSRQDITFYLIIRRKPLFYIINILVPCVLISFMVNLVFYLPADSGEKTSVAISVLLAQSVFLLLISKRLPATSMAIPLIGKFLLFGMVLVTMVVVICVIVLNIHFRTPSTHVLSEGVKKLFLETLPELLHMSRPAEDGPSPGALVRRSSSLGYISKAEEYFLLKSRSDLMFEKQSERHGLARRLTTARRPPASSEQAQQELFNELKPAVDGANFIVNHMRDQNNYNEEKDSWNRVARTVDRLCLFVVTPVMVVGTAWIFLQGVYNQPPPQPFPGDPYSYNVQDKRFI
Assay [2] has as its target T1, Acetylcholine receptor subunit delta. In words: Compound was evaluated for inhibitory activity against human embryonic muscle type Nicotinic acetylcholine receptor specifically delta-subunit expressed in TE-671 cell (at holding potential -100 mV). It counts as cell-based.

In general, pIC50 refers to −log10 of the IC50, conventionally taken in molar units. The low end stands for a high IC50, the high end for a low IC50. `CCCC(=O)N[C@@H](Cc1ccc(O)cc1)C(=O)NCCCCCCCCCCCCN`: the pIC50 was 5.82 in assay [1] and 6.03 in assay [2].

As for `CCCC(=O)N[C@@H](Cc1ccc(O)cc1)C(=O)NCCCCCCCCCCN`, the negative logarithm of the IC50 (pIC50) in assay [1] was 5.06; in assay [2] it was roughly 5.00.

On to `CCCC(=O)N[C@@H](Cc1ccc(O)cc1)C(=O)NCCCCCCCN`, for which the results for the pIC50 in assay [1] and in assay [2] were 4.98 and 5.26, respectively.

Turning to `CCCC(=O)N[C@@H](Cc1ccc(O)cc1)C(=O)NCCCCCCCCN`, the pIC50 in assay [1] is 5.01; in assay [2] it was 5.30.

As to `CCCC(=O)N[C@@H](Cc1ccc(O)cc1)C(=O)NCCCCCCCCCCCN`, the pIC50 in assay [1] was 6.24; in assay [2], 6.34.

`CCCC(=O)N[C@@H](Cc1ccc(O)cc1)C(=O)NCCCNCCCCNCCCN` [PHILANTHOTOXIN 343] showed a pIC50 in assay [2] of 4.12.

As to `CCCC(=O)N[C@@H](Cc1ccc(O)cc1)C(=O)NCCCCCCCCCN`, the results for the pIC50 in assay [1] and in assay [2] were 4.88 and 4.82, respectively.
